Results on 10 compounds are retold here after PubChem BioAssay AID1963831 (Molecular Pharmacology Branch, DTP, NCI, 2024).

“And” between values parts separate entries of the source, which are not always exact repeats. Equal entries are not always repeated.

For this assay, the system named is 889142-216-R-J1-PDC complex spheroid viability. The assay can be described thus: Anticancer human tumor 889142-216-R-J1-PDC patient-derived bladder carcinoma cell line growth inhibition [POLQ]. Conditions: for viability, T/C: stronger effect = lower value; for IC50: curve of compound. Here is the method: Multicellular complex tumor spheroid response to Polymerase (POL) inhibitors (novobiocin, ART-558, RP6685) in combination with a variety of drugs and investigational agents in selected tumor cell lines
The POL inhibitors (novobiocin, ART-558, and RP6685) were evaluated both individually and in combination with standard of care and investigational anticancer small molecules within a complex spheroid model of solid tumors. . Complex spheroids include a stromal component modeled by human endothelial cells (HUVEC) and fibroblasts modeled by human mesenchymal stem cells (MSCs). The concentration ranges selected for each drug and investigational agent were based upon clinically achievable concentrations if the clinical Cmax of the agent was known.
Compounds. The drugs and investigational agents: novobiocin (NSC847541), ART-558 (NSC835418), RP-6685 (NSC848927), peposertib (NSC802822), ceralasertib (NSC780249), elimusertib (NSC800525), camonsertib (NSC841442), AZD-1390 (NSC803789), olaparib (NSC753686), talazoparib (NSC767125), rucaparib (NSC756644), sotorasib (NSC818433), MRTX-1133 (NSC836407), SN-38 (NSC673596), topotecan (NSC609699), epotoside (NSC141540), doxorubicin (NSC123127), gemcitabine (NSC613327), 5-fluorouracil (NSC19893), paclitaxel (NSC125973), vemurafenib (NSC761431), MSA-2 (NSC828583), SN-011 (NSC837082), adavosertib (NSC754352), prexasertib (NSC758257), carboplatin (NSC241240) and oxaliplatin (NSC266046), were obtained from the National Cancer Institute (NCI) Developmental Therapeutics Program Chemical Repository (21). The FDA-approved anticancer drug set is available from the Developmental Therapeutics Program at https://dtp.cancer.gov/organization/dscb/obtaining/. […] The stock solutions were prepared in dimethyl sulfoxide (DMSO, Sigma-Aldrich, St. Louis, MO, cat. D2650), except for the platinum compounds which were prepared in saline (Quality Biological, Gaithersburg, MD, cat. 114-055-101), at 800-fold the tested concentration and stored at -70 degrees C prior to their use. All drugs and investigational agents were tested over a range starting from a high concentration at or near the clinical Cmax and decreasing in half-log increments. If the clinical Cmax for an agent had not been determined, the highest concentration tested was 10 microM, except for SN-38, which was tested at a high concentration of 1 microM.
Cell Culture. All cells were maintained in an incubator at 37 degrees C and 5% CO2 with 95% humidity. The PDC lines were cultured according to standard operating procedures established by the NCI PDMR (https://pdmr.cancer.gov). Table 3 of the manuscript, lists the cell lines along with the number of the three cell types plated to form the mct-spheroids and media for tumor cell growth. After thawing, all PDC lines, except 997537-175-T-J1-PDC and 415267-285-R-J2-PDC, were cultured in Matrigel-coated flasks prepared with a working solution of 1X Ham's F-12 nutrient mix, without supplementation (Thermo Fisher Scientific, cat. 11765054), 100 U/mL penicillin-streptomycin (Thermo Fisher Scientific, cat. 15140122), and 2.5% Matrigel (Corning Inc., Corning, NY, cat. 354248) for the first three passages. The two PDC lines 997537-175-T-J1-PDC and 415267-285-R-J2-PDC were cultured on uncoated flasks. The 857933-349-R-J2-PDC line was cultured in 6C/Colon 1B media containing advanced DMEM/F-12 (Thermo Fisher Scientific, cat. 12634028), 10 mM HEPES (Thermo Fisher Scientific, cat. 15630080), 1X GlutaMAX supplement (Thermo Fisher Scientific, cat. 35050061), 0.1 mg/mL primocin (InvivoGen, San Diego, CA, cat. ant-pm-2), 10% defined fetal bovine serum, heat inactivated (HyClone Laboratories Inc., Logan, UT, cat. SH30070.03HI), 50% L-WRN conditioned media (ATCC, cat. CRL-3276), 1.25 mM N-Acetyl-L-cysteine (Sigma-Aldrich, cat. A9165), 10 mM nicotinamide (Sigma-Aldrich, cat. N0636), 1X B-27 supplement (Thermo Fisher Scientific, cat. 17504044), 1X N-2 supplement (Thermo Fisher Scientific, cat. […]
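Note: spheroids exposed to compounds for seven days.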

Regarding `C=CC(=O)N1CCN(c2nc(=O)n(-c3c(C)ccnc3C(C)C)c3nc(-c4c(O)cccc4F)c(F)cc23)C(C)C1` (centres undefined), the IC50 (usually the point on the concentration scale where inhibition reaches its midpoint) is above 10 µM. Also, under “compound 0.0316 µM”, the viability, T/C – broadly, the result in the treated group divided by that in the control group, in per cent – is 85.5% and 87.6% and 108%. For the setting “compound 0.1 µM”, the viability, T/C is 90.5% and 106% and 83.7%. Also, where the note is “compound 0.316 µM”, the viability, T/C is 123% and 117% and 93.5%. The viability, T/C (compound 1 µM) was 92.1% and 126% and 116%. Also, the viability, T/C (compound 3.16 µM) is 150% and 108% and 109%. Further, under “compound 10 µM”, the viability, T/C is 106% and 105% and 97.8%.

Consider `C=CCn1c(=O)c2cnc(Nc3ccc(N4CCN(C)CC4)cc3)nc2n1-c1cccc(C(C)(C)O)n1`, for which the IC50 was above 1 µM. In addition, where the note is “compound 0.00316 µM”, the viability, T/C is 97.5% and 109% and 88.1%. The viability, T/C (compound 0.01 µM) is 87.6% and 92.1% and 104%. For the same compound, under “compound 0.0316 µM”, the viability, T/C is 97.2% and 110% and 104%. Further, the viability, T/C (compound 0.1 µM) is 80.1% and 100% and 88.6%. For the same compound, the viability, T/C (compound 0.316 µM) is 57.7% and 70.7% and 79.8%. In addition, the viability, T/C (compound 1 µM) was 54.2% and 67% and 62.5%.

Take `CC(=O)O[C@H]1C(=O)[C@@]2(C)[C@H]([C@H](OC(=O)c3ccccc3)[C@]3(O)C[C@H](OC(=O)[C@H](O)[C@@H](NC(=O)c4ccccc4)c4ccccc4)C(C)=C1C3(C)C)[C@]1(OC(C)=O)CO[C@@H]1C[C@@H]2O`: the viability, T/C is 51.9% and 53.3% and 40.6% (compound 0.00949 µM); 51% and 60.1% and 33.6% (compound 0.03 µM); 54.7% and 51.5% and 37.1% (compound 0.0949 µM); 52.4% and 50.6% and 36.6% (compound 0.3 µM); 43.7% and 49.6% and 35.6% (compound 0.949 µM); 49.5% and 56.1% and 39% (compound 3 µM).

For the compound `CC(C)n1c(=O)n(C)c2cnc3cc(F)c(-c4ccc(OCCCN5CCCCC5)nc4)cc3c21`, the IC50 is 3.19 µM and > 10 µM and 7.64 µM. Moreover, for the setting “compound 0.0316 µM”, the viability, T/C was 78.6% and 82.9% and 98.3%. The viability, T/C (compound 0.1 µM) is 101% and 92.7% and 85.2%. The viability, T/C (compound 0.316 µM) is 67.3% and 87% and 77.9%. Also, the viability, T/C (compound 1 µM) was 63.5% and 85.9% and 71.9%. Moreover, where the note is “compound 3.16 µM”, the viability, T/C is 56.2% and 77.5% and 64.2%. In addition, the viability, T/C (compound 10 µM) was 17.9% and 67.2% and 43.8%.

With `CC1COCCN1c1cc(-c2ccnn2C)c2ccnc(-c3ccn[nH]3)c2n1` (centres undefined), the IC50 is 0.206 µM and 0.182 µM and 0.308 µM. Further, the viability, T/C (compound 0.0316 µM) was 69.8% and 79.1% and 76.9%. The viability, T/C (compound 0.1 µM) was 54.8% and 52.9% and 67.8%. In addition, for the setting “compound 0.316 µM”, the viability, T/C is 47% and 40.5% and 47.4%. Where the note is “compound 1 µM”, the viability, T/C was 38.7% and 46.3% and 39.9%. Further, the viability, T/C (compound 3.16 µM) is 32.2% and 36.3% and 36.2%. In addition, under “compound 10 µM”, the viability, T/C was 28.1% and 25% and 30.5%.

As for `CC1COCCN1c1cc(C2(S(C)(=N)=O)CC2)nc(-c2ccnc3[nH]ccc23)n1` (centres undefined), the IC50 is 3.75 µM and > 10 µM and 1.28 µM. Moreover, the viability, T/C (compound 0.0316 µM) was 125% and 90% and 99.5%. The viability, T/C (compound 0.1 µM) was 92.6% and 98.3% and 102%. In addition, where the note is “compound 0.316 µM”, the viability, T/C is 98.3% and 75.8% and 74.6%. The viability, T/C (compound 1 µM) is 53.5% and 71.3% and 53.6%. Further, the viability, T/C (compound 3.16 µM) is 51.8% and 48.8% and 44.5%. For the same compound, the viability, T/C (compound 10 µM) is 45.6% and 58% and 46.8%.

`CCCS(=O)(=O)Nc1ccc(F)c(C(=O)c2c[nH]c3ncc(-c4ccc(Cl)cc4)cc23)c1F`: the IC50 is > 10 µM and 7.63 µM and 6.63 µM. Besides, the viability, T/C (compound 0.0316 µM) is 74.9% and 85.2% and 120%. For the same compound, the viability, T/C (compound 0.1 µM) is 89.7% and 99.9% and 114%. The viability, T/C (compound 0.316 µM) was 84.1% and 105% and 81.2%. The viability, T/C (compound 1 µM) is 96.2% and 106% and 87.5%. For the same compound, the viability, T/C (compound 3.16 µM) is 62.4% and 72.5% and 71.5%. In addition, where the note is “compound 10 µM”, the viability, T/C is 50% and 43.1% and 36.3%.

On to `CC[C@@]1(O)C(=O)OCc2c1cc1n(c2=O)Cc2cc3c(CN(C)C)c(O)ccc3nc2-1`, for which the IC50 was > 0.1 µM and 0.0947 µM. Moreover, under “compound 0.000316 µM”, the viability, T/C is 110% and 87.5%. Besides, the viability, T/C (compound 0.001 µM) is 96.5% and 89.5%. In addition, where the note is “compound 0.00316 µM”, the viability, T/C is 103% and 85.1%. For the setting “compound 0.01 µM”, the viability, T/C is 91.3% and 89.6%. For the setting “compound 0.0316 µM”, the viability, T/C is 60.9% and 63.7%. Further, the viability, T/C (compound 0.1 µM) is 60.2% and 49.3%.

Consider `CCc1c2c(nc3ccc(O)cc13)-c1cc3c(c(=O)n1C2)COC(=O)[C@]3(O)CC`, for which the IC50 is 0.0109 µM and 0.0173 µM. Further, where the note is “compound 0.00316 µM”, the viability, T/C was 58.4% and 64.9%. For the same compound, the viability, T/C (compound 0.01 µM) was 50.7% and 50.6%. In addition, the viability, T/C (compound 0.0316 µM) was 40.2% and 47.8%. Besides, where the note is “compound 0.1 µM”, the viability, T/C is 33.7% and 31.8%. The viability, T/C (compound 0.316 µM) was 29.5% and 27.7%. Besides, the viability, T/C (compound 1 µM) was 11.7% and 9.45%.

Consider `CCc1cc2c(N3CCc4c(cc(Cn5ccnc5)cc4-c4cn(C)nc4C(F)(F)F)C3=O)ccnc2c(OC)n1`, for which the IC50 was above 10 µM. In addition, where the note is “compound 0.0316 µM”, the viability, T/C was 127% and 103% and 138%. For the same compound, the viability, T/C (compound 0.1 µM) was 115% and 101% and 105%. The viability, T/C (compound 0.316 µM) is 123% and 106% (2×). Further, the viability, T/C (compound 1 µM) was 116% and 126% and 105%. Besides, for the setting “compound 3.16 µM”, the viability, T/C was 116% and 111% and 93.8%. Besides, the viability, T/C (compound 10 µM) is 83.1% and 86.1% and 71.5%.
